System: N. europaea
Test: standard nitrification inhibition assay (NO2- production, Griess)
Format: cell-based, Nitrosomonas europaea
Details: [NH4+]=3 mM, [inhibitor]=0.3 mM (10 mol %), pH 7.5, 30° C., 60 min
Protocol: Cells of N. multiformis and N. europaea were cultivated to the mid-exponential growth phase (OD600=0.1, [NO2^−] approximately 800 μM) and harvested by filtration onto 0.2 μm membrane filters (Mixed Cellulose Ester (MCE), Sigma Aldrich). The cells were washed with 2×100 mL of 0.1 M sodium phosphate buffer (NaPB), containing 0.2 mM MgSO4 at pH 7.5. The cells were washed from the filter paper by transferring it to a sterile 50 mL tube and resuspending in NaPB (15 mL), followed by 5 s of vortexing (Ratek, Australia) and 3 s of sonication (Vevor, Australia). […] Experiments were performed in triplicate.
In a deep 96-well plate (2 mL capacity), 980 μL of the bacterial inoculum (OD600=0.03) was added to the inhibitor (10 μL, 30 mmol L^−1 in Milli-Q water), the solutions were mixed thoroughly and pre-incubated in the dark for 5 minutes at 100 rpm and 30° C. (NH4)2SO4 (10 μL, 150 mM, from a prepared sterile solution containing 19.8 g L^−1 (NH4)2SO4 in Milli-Q water) was then added using a multi-channel pipette. The plate was covered with a with an O2 permeable membrane to ensure aeration (Breathe-Easy® sealing membrane, Sigma Aldrich) and incubated in a temperature-regulated rotary incubator (Ratek, Australia) in the dark for 60 minutes at 30° C. and 100 rpm. An aliquot of the reaction solution ([…]) was transferred to a 96-well spectrophotometric plate to which 50 µL of Griess reagent was added. The colour was allowed to develop for 15 minutes at room temperature, and the absorbance was measured at 540 nm. Each assay was accompanied by control treatments to determine the 0% and 100% NO2 signal. The percentage inhibition was calculated according to eqn. 1 from the NO2 production of the cells in NaPB (i) without additive (‘untreated cells’: 0% signal), (ii) with [NH4^+]=3 mM (‘uninhibited’ cells: 100% signal) and (iii) with [NH4^+]=3 mM and [inhibitor]=0.3 mM and 0.03 mM (10 mol % and 1 mol % of [NH4^+], ‘inhibited cells’). Experiments were performed in triplicate.

## C#CCn1cc(C)nn1 [Compound 4-MPT, 4-Methyl-1-(prop-2-yn-1yl)-1H-1,2,3-triazole]
  % Inhibition NE: 77%
